Data: article PMC9229160 (Pharmaceuticals, 2022)

Molecular target: T1, human kappa-opioid receptor (KOR) (Homo sapiens, UniProt P41145)
T1 construct: gene OPRK1
Assay: [3H]U69, […] radioligand competition binding, CHO-hKOR membranes; […]GTPγS antagonism (Ke […])

Question: Which Ki does the source give for `Cc1c(NC(=O)c2ccc(Cl)cc2)cc(-c2ccccc2)n1CCCN1CCOCC1` [Compound A] here?
Answer: 1350 ± 320 nM
